From US8580732B2, “Peptide therapy for hyperglycemia” (Duke University, priority 2009, dated 2013)

Assays:
Assay type in all cases: cell-based
primary rat islets [1] = test: Glucose-stimulated insulin secretion (GSIS), static incubation, primary rat islets; details: 16.7 mM Glc
Protocol: (§1) 832/3 and 832/13 cells derived from the parental INS-1 cell line were cultured as previously described (REF-Hohmeier/Wolheim). Pancreatic islets were isolated from male Sprague-Dawley rats according to standard procedures (See, e.g., Ronnebaum et al., (2006) J. Biol. Chem. 281: 30593-30602). For cell culture experiments, TLQP-21 was purchased from Phoenix Pharmaceuticals. For animal studies, TLQP-21 was synthesized by GenScript Corporation. AQEE-30 was a kind gift of Dr. Yun-Ping (Merck Research Laboratories).
Human VGF cDNA was purchased from Open Biosystems and subcloned into pAC.CMV using PCR engineered restriction sites. Recombinant adenovirus was generated as previously described (REF). Adenoviruses expressing Nkx6.1, Pdx-1, GFP, beta-galactosidase have been described elsewhere (REF). […]
Islets: 3 groups of 20 islets were washed with phosphate-buffered saline (PBS) and incubated in secretion assay buffer (SAB; 114 mM NaCl, 4.7 mM KCl, 1.2 mM […], 1.16 mM MgSO4, 25 mM HEPES pH 7.2, 2.5 mM CaCl2, 0.2% bovine serum albumin (Gibco), 25.5 mM NaHCO3) containing 2.5 mM Glc for 1 hr at 37° C. […] Islets were lysed in RIPA buffer containing 5 mM EDTA and total protein determined by BCA (Pierce). Insulin was measured from SAB using the Coat-a-Count kit (Siemens). Insulin content was determined from a 1:100 dilution of total protein.

832/3 cells = test: Glucose-stimulated insulin secretion (GSIS), static incubation, 832/3 cells; details: 12 mM Glc, concentrations that augment insulin release in rat islets
Protocol: as §1
832/3 cells were plated in triplicate per condition in 12-well dishes and assayed at confluence. Cells were washed in SAB buffer and pre-incubated for 1.5 hr in SAB containing 2.5 mM Glc. Insulin was collected by static incubation in SAB containing 2.5 mM Glc for 2 hrs at 37° C. (basal) followed by incubation in SAB containing 12 mM Glc for 2 hrs (stimulatory). Secretagogues (20 nM exendin-4, TLQP-21, AQEE-30) were added where indicated. Cells were washed in PBS, collected by centrifugation, and lysed in 50 uL RIPA containing 5 mM EDTA. Total protein was determined by BCA (Pierce). Insulin was measured from SAB using the Coat-a-Count kit (Siemens). Insulin content was determined from a 1:500 dilution of total protein.

primary rat islets [2] = test: cAMP level determination in primary rat islets; details: 16.7 mM Glc, 30 min, TLQP-21 50 nM, exendin-4 20 nM, relative to untreated control
Protocol: Primary rat islets and 832/3 cells were prepared as stated for insulin secretion measurements except the incubation at stimulatory glucose was for 30 min in the presence of 0.1 mM isobuytlmethylxanthine (IBMX). Rat islets were rapidly transferred to 0.2 mL of ice-cold 80% ethanol and stored at −80° C. until assayed. Samples were evaporated to dryness and assayed using the cAMP EIA kit from Biomedical Technologies, Inc. using acetylation protocol. For 832/3 cells, the secretion buffer was removed and rapidly replaced with 0.5 mL of 80% ethanol. Cells were stored at −80° C. until assayed. 0.2 mL of sample was evaporated to dryness and assayed for cAMP using the non-acetylation protocol.

isolated rat islets = test: Etoposide-induced apoptosis, Annexin V staining by flow cytometry, isolated rat islets; details: 72 hr
Protocol: Pools of 50 islets were treated with DMSO, etoposide (0.2 mM) or camptothecin (10 μM) for 72 hrs as indicated. Islets were co-incubated with peptide (50 nM TLQP-21, 50 nM exendin-4), H89 (concentration), and/or LY294002 (concentration) where indicated. Islets were dispersed using 0.05% trypsin/EDTA (Sigma) diluted 1:1 with cell dissociation buffer (Sigma) for 5-10 min at 37 C following gentle pipetting. Islets were recovered by centrifugation and stained with FITC-conjugated Annexin V and propidium iodide (Roche) according to the manufacturer's specifications. Data were collected using a FACScan analyzer and analyzed using WinMDI 2.9 software.

Q: For “AQEE-30: second C-terminal VGF peptide; SEQ ID NO:14 is rat AQEE-30 polypeptide (AQARRAQEEADAEERRLQEQEELENYIEHVLLHRP; listed as Rattus norvegicus)”, which “ability to potentiate GSIS” value (primary rat islets [1]) is on record?
A: unable to augment GSIS

Q: And the “ability to potentiate GSIS” value (832/3 cells)?
A: unable to augment GSIS

Q: What does the source list for exendin-4?
A: enhancement of GSIS (primary rat islets [1]; 20 nM): 1.8 fold; increase in cAMP levels (primary rat islets [2]): ~3 fold; protection against etoposide-mediated apoptosis (isolated rat islets; co-culture with etoposide 0.2 mM): comparable level of protection

Q: For `COc1cc([C@@H]2c3cc4c(cc3[C@@H](O[C@@H]3O[C@@H]5CO[C@@H](C)O[C@H]5[C@H](O)[C@H]3O)[C@H]3COC(=O)[C@H]23)OCO4)cc(OC)c1O` [etoposide], which “increase in Annexin V positive cells over untreated (DMSO) control” value (isolated rat islets; etoposide 0.2 mM alone) is on record?
A: 18%

Q: And the “islet cells staining positive for Annexin V” value (isolated rat islets; etoposide 0.2 mM alone)?
A: 35%
